Assay [1] addresses T1, hTLR7 (Homo sapiens, UniProt Q9NYK1).
T1 construct: host or cells: HEK-Blue hTLR7 cells (HEK293-derived, own knowledge)
T1 sequence (Q9NYK1 27-1049): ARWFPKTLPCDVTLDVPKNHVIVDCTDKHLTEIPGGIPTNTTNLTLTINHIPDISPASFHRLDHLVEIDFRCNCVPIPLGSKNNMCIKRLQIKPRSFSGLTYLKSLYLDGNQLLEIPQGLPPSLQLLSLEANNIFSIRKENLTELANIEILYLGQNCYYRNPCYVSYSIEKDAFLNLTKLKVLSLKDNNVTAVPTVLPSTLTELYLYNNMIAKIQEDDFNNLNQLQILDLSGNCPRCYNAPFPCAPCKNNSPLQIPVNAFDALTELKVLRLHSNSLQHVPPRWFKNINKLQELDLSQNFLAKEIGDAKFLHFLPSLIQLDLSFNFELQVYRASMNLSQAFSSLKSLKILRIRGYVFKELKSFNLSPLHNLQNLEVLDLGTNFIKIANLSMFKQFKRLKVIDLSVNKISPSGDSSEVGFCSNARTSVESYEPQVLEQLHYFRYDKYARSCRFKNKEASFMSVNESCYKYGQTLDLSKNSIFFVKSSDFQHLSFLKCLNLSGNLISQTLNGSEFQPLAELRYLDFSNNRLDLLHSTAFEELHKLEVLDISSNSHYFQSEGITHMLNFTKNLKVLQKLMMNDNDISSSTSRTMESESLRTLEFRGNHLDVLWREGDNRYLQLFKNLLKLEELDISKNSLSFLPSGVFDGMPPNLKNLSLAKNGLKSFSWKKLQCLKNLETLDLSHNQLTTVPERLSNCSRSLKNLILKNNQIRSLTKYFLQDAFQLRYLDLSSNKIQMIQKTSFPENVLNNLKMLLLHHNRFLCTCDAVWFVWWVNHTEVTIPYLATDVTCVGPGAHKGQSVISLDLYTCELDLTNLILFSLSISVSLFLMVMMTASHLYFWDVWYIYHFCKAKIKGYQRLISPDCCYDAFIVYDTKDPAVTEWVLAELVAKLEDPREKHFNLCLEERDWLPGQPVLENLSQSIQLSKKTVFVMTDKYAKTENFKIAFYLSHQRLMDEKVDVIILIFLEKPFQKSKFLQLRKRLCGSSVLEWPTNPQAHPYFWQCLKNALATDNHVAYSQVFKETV
The experiment in a line: Human TLR7 Reporter Assay. It is filed as cell-based. The settings on record: HEK-Blue hTLR7 cells, 16 hours, normalized to CL097 (6 μM) and DMSO. The essentials:
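HEK-Blue hTLR7 reporter cells (20,000/well) incubated 16 h at 37 °C with 10-point 3-fold compound dilutions; SEAP read by absorbance at 620 nm. Effects normalized between CL097 (6 μM) and DMSO controls; EC50 from 4-parameter fit.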
A general note: In a reporter assay the amount or activity of a reporter protein is the signal.

Assay [2] deals with T2, hTLR8 (Homo sapiens, UniProt Q9NR97).
T2 construct: host or cells: HEK-Blue hTLR8 cells (HEK293-derived, own knowledge)
T2 sequence (Q9NR97 27-1041): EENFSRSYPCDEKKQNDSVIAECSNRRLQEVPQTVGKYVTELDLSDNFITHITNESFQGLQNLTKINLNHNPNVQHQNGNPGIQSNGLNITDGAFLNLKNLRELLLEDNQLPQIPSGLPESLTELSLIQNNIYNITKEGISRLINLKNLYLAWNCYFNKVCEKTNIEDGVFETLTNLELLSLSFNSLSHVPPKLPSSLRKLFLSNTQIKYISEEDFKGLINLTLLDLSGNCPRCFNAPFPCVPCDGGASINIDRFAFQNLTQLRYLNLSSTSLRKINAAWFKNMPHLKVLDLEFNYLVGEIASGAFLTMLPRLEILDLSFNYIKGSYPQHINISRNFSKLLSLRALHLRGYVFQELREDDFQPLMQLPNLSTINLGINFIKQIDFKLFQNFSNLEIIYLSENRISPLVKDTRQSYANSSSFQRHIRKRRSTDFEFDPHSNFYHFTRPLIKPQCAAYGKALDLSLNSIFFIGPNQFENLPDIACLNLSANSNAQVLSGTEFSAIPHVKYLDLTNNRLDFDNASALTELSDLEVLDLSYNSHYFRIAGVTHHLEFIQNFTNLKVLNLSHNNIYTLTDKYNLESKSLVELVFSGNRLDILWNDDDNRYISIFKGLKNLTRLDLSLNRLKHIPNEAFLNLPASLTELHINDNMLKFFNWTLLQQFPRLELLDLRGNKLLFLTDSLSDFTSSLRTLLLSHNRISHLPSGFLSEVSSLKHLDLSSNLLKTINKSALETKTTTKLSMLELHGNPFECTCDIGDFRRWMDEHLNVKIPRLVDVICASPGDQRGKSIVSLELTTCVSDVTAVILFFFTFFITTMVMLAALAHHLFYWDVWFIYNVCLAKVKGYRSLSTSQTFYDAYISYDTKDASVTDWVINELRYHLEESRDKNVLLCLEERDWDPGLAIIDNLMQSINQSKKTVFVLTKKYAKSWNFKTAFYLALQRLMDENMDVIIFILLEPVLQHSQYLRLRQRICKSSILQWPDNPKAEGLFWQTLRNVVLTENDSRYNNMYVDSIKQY
The experiment in a line: Human TLR8 Reporter Assay. It is filed as cell-based. The settings on record: HEK-Blue hTLR8 cells, 16 hours, normalized to tl8-506 (1 μM) and DMSO. The essentials: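 HEK-Blue hTLR8 cells (20,000/well) incubated 16 h at 37 °C with 10-point 3-fold compound dilutions in HEK-Blue Detection medium; reporter read as absorbance at 620 nm. Effects normalized between DMSO and tl8-506 (1 μM); EC50 from 4-parameter fit.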

Take `CCC[C@@H](CO)Nc1nc(N)nc2cn(Cc3ccc(N4CCN(C(=O)C5CCC(CN6C(=O)C=CC6=O)CC5)CC4)cc3OC)nc12` (stereo partly drawn) [Compound 153]: the EC50 in assay [1] was 1.06 µM; in assay [2] it was 3.14 µM.
For `CCC[C@@H](CO)Nc1nc(N)nc2cn(Cc3c(OC)cc(CNC)cc3OC)nc12` [Compound 154], in that order: 1.08 µM and 4.15 µM.
Take `CCC[C@@H](CO)Nc1nc(N)nc2cn(Cc3ccc(CNC)cc3OC)nc12` [Compound 155]: the EC50 came to 2.46 µM in assay [1] and 6.53 µM in assay [2].
The like results for `C=CCN(C)Cc1ccc(Cn2cc3nc(N)nc(N[C@H](CO)CCC)c3n2)c(OC)c1` [Compound 156] were, in that order, 0.0768 µM and 0.153 µM.
On to `C=CCN(C)Cc1cnc(Cn2cc3nc(N)nc(NCCCC)c3n2)c(OC)c1` [Compound 157], for which the EC50 in assay [1] was 0.0559 µM; in assay [2], 0.37 µM.
Take `C=CCN(C)Cc1cc(OC)c(Cn2cc3nc(N)nc(NC(C)CCC)c3n2)c(OC)c1` (stereo not drawn) [Compound 158]: the EC50 in assay [1] came out at 0.0218 µM; in assay [2], 0.178 µM.
With `CCCCNc1nc(N)nc2cn(Cc3nc(N4CCNCC4)ccc3OC)nc12` [Compound 159], the EC50 in assay [1] stood at 1.15 µM; in assay [2], 9.55 µM.
The like results for `CCCCNc1nc(N)nc2cn(Cc3nc(Br)oc3C)nc12` [Compound 160] were, in that order, 0.373 µM and 8.3 µM.
Turning to `C=CCN(C)Cc1cc(OC)c(Cn2cc3nc(N)nc(N[C@H](CO)CCC)c3n2)c(OC)c1` [Compound 161], the EC50 in assay [1] was found to be 0.0422 µM; in assay [2] it was 0.091 µM.
As for `CCCCNc1nc(N)nc2cn(Cc3nc(NCCCN)ccc3OC)nc12` [Compound 162], the EC50 turned out to be 0.16 µM in assay [1] and 1.01 µM in assay [2].
Turning to `CCCCNc1nc(N)nc2cn(Cc3ncc(CNC)cc3OC)nc12` [Compound 163], the results for the EC50 in assay [1] and in assay [2] were 0.476 µM and 0.809 µM, respectively.
On to `CCCC(C)Nc1nc(N)nc2cn(Cc3c(OC)cc(CNC)cc3OC)nc12` (stereo not drawn) [Compound 164], for which the EC50 in assay [1] turned out to be 0.11 µM; in assay [2] it was 0.168 µM.
Take `CCCCNc1nc(N)nc2cn(Cc3nc(CNC)oc3C)nc12` [Compound 165]: the EC50 in assay [1] came to 1.36 µM; in assay [2], 4.68 µM.
Consider `CCCCNc1nc(N)nc2cn(Cc3ccc(N)cc3OC)nc12` [Compound 166], for which the figures for the EC50 in assay [1] and in assay [2] were 0.093 µM and 0.632 µM, respectively.
Turning to `CCCCNc1nc(N)nc2cn(Cc3ccc(C(C)N)cc3OC)nc12` (stereo not drawn) [Compound 167], the EC50 in assay [1] was 0.357 µM; in assay [2] it was 0.179 µM.
In the case of `C=CCN(C)Cc1nc(Cn2cc3nc(N)nc(NCCCC)c3n2)c(C)o1` [Compound 169], the EC50 in assay [1] is 1.85 µM; in assay [2], 4.06 µM.
As to `CCCCNc1nc(N)nc2cn(Cc3nc(C)no3)nc12` [Compound 170], the EC50 was 1.56 µM in assay [1] and 4.43 µM in assay [2].
For `CCCCNc1nc(N)nc2cn(Cc3cc(C)no3)nc12` [Compound 171], in that order: 0.516 µM and 2.52 µM.
In the case of `CCCCNc1nc(N)nc2cn(Cc3nnc(C)o3)nc12` [Compound 172], the EC50 amounted to 2.79 µM in assay [1] and 3.99 µM in assay [2].
With `CCCCNc1nc(N)nc2cn(Cc3cc(C)nn3C)nc12` [Compound 173], the results for the EC50 in assay [1] and in assay [2] were 0.246 µM and 2.73 µM, respectively.
Regarding `CCCCNc1nc(N)nc2cn(Cc3ncnn3C)nc12` [Compound 174], the EC50 in assay [1] came out at 1.45 µM; in assay [2] it was 8.32 µM.
For `CCCCNc1nc(N)nc2cn(Cc3sc(C)nc3C)nc12` [Compound 175], the EC50 in assay [1] is 0.112 µM; in assay [2], 1.11 µM.
The like results for `CCCCNc1nc(N)nc2cn(Cc3ccc(CC(C)N)cc3OC)nc12` (stereo not drawn) [Compound 176] were, in that order, 0.329 µM and 0.467 µM.
Turning to `CCCCNc1nc(N)nc2cn(Cc3ccnn3CC)nc12` [Compound 177], the EC50 was 0.681 µM in assay [1] and 2.81 µM in assay [2].
Turning to `CCCCNc1nc(N)nc2cn(Cc3ccc(CC(C)N)cc3OC)nc12` (stereo not drawn) [Compound 178], the EC50 in assay [1] came out at 0.294 µM; in assay [2], 0.455 µM.
Consider `CCCCNc1nc(N)nc2cn(Cc3ccccc3OC(F)F)nc12` [Compound 179], for which the figures for the EC50 in assay [1] and in assay [2] were 0.226 µM and 1.89 µM, respectively.
As to `CCCCNc1nc(N)nc2cn(Cc3cncn3C)nc12` [Compound 180], the figures for the 50% effective concentration (EC50) in assay [1] and in assay [2] were 1.14 µM and 6.37 µM, respectively.
Take `CCCCNc1nc(N)nc2cn(Cc3scnc3C)nc12` [Compound 181]: the EC50 turned out to be 0.171 µM in assay [1] and 1.5 µM in assay [2].
With `CCCCNc1nc(N)nc2cn(Cc3cncn3C3CC3)nc12` [Compound 182], the EC50 stood at 0.929 µM in assay [1] and 3.36 µM in assay [2].
Take `C=CCN(C)Cc1cc(OC)c(Cn2cc3nc(N)nc(N[C@@H](C)CCC)c3n2)c(OC)c1` [Compound 183]: the EC50 in assay [1] was determined as 0.0308 µM; in assay [2] it was 0.38 µM.
As to `CCC[C@H](C)Nc1nc(N)nc2cn(Cc3c(OC)cc(Br)cc3OC)nc12` [Compound 184], the figures for the EC50 in assay [1] and in assay [2] were 0.103 µM and 0.728 µM, respectively.
The like results for `C=CCN(C)Cc1cnc(Cn2cc3nc(N)nc(N[C@H](CO)CCC)c3n2)c(OC)c1` [Compound 185] were, in that order, 0.382 µM and 0.103 µM.
For `CCCCNc1nc(N)nc2cn(Cc3ccc(CN(C)C)o3)nc12` [Compound 186], in that order: 0.19 µM and 0.278 µM.
As for `C=CCN(C)Cc1cc(OC)c(Cn2cc3nc(N)nc(N[C@H](C)CCC)c3n2)c(OC)c1` [Compound 187], the values for the concentration giving a half-maximal response (EC50) in assay [1] and in assay [2] were 0.02 µM and 0.0633 µM, respectively.
For `CCCCNc1nc(N)nc2cn(Cc3[nH]cnc3C)nc12` [Compound 188], in that order: 5.44 µM and 12.4 µM.
Take `CCC[C@@H](C)Nc1nc(N)nc2cn(Cc3c(OC)cc(CNC)cc3OC)nc12` [Compound 189]: the EC50 in assay [1] worked out at 0.09 µM; in assay [2], 0.29 µM.
In the case of `CCC[C@H](C)Nc1nc(N)nc2cn(Cc3c(OC)cc(CNC)cc3OC)nc12` [Compound 190], the EC50 came to 0.187 µM in assay [1] and 2.21 µM in assay [2].
With `CCCCNc1nc(N)nc2cn(Cc3ccc(CN4CC(N)C4)cc3OC)nc12` [Compound 191], the EC50 in assay [1] was 0.541 µM; in assay [2], 0.86 µM.
On to `CCCCNc1nc(N)nc2cn(Cc3c(OC)cc(CN4CC(N)C4)cc3OC)nc12` [Compound 192], for which the concentration giving a half-maximal response (EC50) is 0.653 µM in assay [1] and 1.16 µM in assay [2].

What is called EC50 is the concentration needed to bring the measured effect to its halfway point. Read a high EC50 as a less potent agent.
